EP3057951B1, “METHYLENE LINKED QUINOLINYL MODULATORS OF ROR-GAMMA-T” (Janssen Pharmaceutica NV, priority 2013, dated 2015)
Several values for one entry are separate records, joined by “and”; a condition that tells them apart may be missing. Identical values can stand only once.

How the values were obtained:
[1] = target: T1, wild type human RORγt ligand binding domain (RORyt LBD) (Homo sapiens, UniProt P51449); assay: RORγt ThermoFluor assay (thermal shift, binding affinity KD)
T1 construct: His-tag (N); TurboTEV protease cleavage site (ENLYFQG) (N); made in house; host or cells: E. coli (pHIS1, modified pET vector)
T1 sequence (P51449 258-518): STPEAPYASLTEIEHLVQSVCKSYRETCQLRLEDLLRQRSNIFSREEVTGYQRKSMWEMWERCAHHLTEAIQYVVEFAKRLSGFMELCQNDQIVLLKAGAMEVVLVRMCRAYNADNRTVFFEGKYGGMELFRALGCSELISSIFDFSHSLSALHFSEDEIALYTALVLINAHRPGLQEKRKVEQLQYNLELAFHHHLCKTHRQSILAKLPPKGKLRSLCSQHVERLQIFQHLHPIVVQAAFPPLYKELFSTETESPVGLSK

[2] = target: T2, wild type human RORγt LBD (Homo sapiens, UniProt P51449); assay: RORγt (LBD) Reporter Assay (GAL4-luciferase, HEK293T cells); assay type: cell-based; conditions: HEK293T cells; for inhibition at 6 µM: HEK-293T, read-out: RORγt (LBD) Reporter Assay, % inhibition @ 6 µM, 6 µM compound concentration; for RORγt (LBD) Reporter Assay, % inhibition @ 6 µM: 6 µM compound concentration
T2 construct: expressed in transfected cells; host or cells: HEK293T
T2 sequence (P51449 258-518): T1 sequence (P51449 258-518)

SMILES	Kd [1] [nM]	IC50 [2]	inhibition at 6 µM [2] [%]	RORγt (LBD) Reporter Assay, % inhibition @ 6 µM [2] [%]
Cn1cncc1C(O)(c1ccc(Cl)cc1)c1ccc2nc(N3CCC3)c(Cc3ccc(-n4cccn4)cc3)c(Cl)c2c1 (single isomer, unassigned) [Example 138b, {2-Azetidin-1-yl-4-chloro-3-[4-(1H-pyrazol-1-yl)benzyl]quinolin-6-yl}(4-chlorophenyl)(1-methyl-1H-imidazol-5-yl)methanol]	1300	560 nM	101	–
Cc1ccc(C(O)(c2ccc3nc(N4CCC4)c(Cc4ccc(C(F)(F)F)cc4)c(Cl)c3c2)c2cnnn2C)c(C)n1 (single isomer, unassigned) [Example 140b, {2-Azetidin-1-yl-4-chloro-3-[4-(trifluoromethyl)benzyl]quinolin-6-yl}(2,6-dimethylpyridin-3-yl)(1-methyl-1H-1,2,3-triazol-5-yl)methanol]	130	~100 nM	101	–
Cc1ccc(C(O)(c2ccc3nc(N4CCC4)c(Cc4ccc(-n5cccn5)cc4)c(Cl)c3c2)c2cnnn2C)c(C)n1 (single isomer, unassigned) [Example 141b, {2-Azetidin-1-yl-4-chloro-3-[4-(1H-pyrazol-1-yl)benzyl]quinolin-6-yl}(2,6-dimethylpyridin-3-yl)(1-methyl-1H-1,2,3-triazol-5-yl)methanol]	17000	> 6000 nM	–	20
Cc1ccc(C(O)(c2ccc3nc(N4CCC4)c(Cc4ccc(-n5cccn5)cc4)c(Cl)c3c2)c2cnnn2C)c(C)n1 (single isomer, unassigned) [Example 141c, {2-Azetidin-1-yl-4-chloro-3-[4-(1H-pyrazol-1-yl)benzyl]quinolin-6-yl}(2,6-dimethylpyridin-3-yl)(1-methyl-1H-1,2,3-triazol-5-yl)methanol]	7100	> 6000 nM	–	5
Cc1ccc(C(O)(c2ccc3nc(NC4CC4)c(Cc4ccc(C(F)(F)F)cc4)c(Cl)c3c2)c2cnnn2C)c(C)n1 (single isomer, unassigned) [Example 143b, {4-Chloro-2-(cyclopropylamino)-3-[4-(trifluoromethyl)benzyl]quinolin-6-yl}(2,6-dimethylpyridin-3-yl)(1-methyl-1H-1,2,3-triazol-5-yl)methanol]	1700	1600 nM	93	–
Cc1ccc(C(O)(c2ccc3nc(Cl)c(Cc4ccc(C(F)(F)F)cc4)c(NC4CC4)c3c2)c2cnnn2C)c(C)n1 (single isomer, unassigned) [Example 144b, {2-Chloro-4-(cyclopropylamino)-3-[4-(trifluoromethyl)benzyl]quinolin-6-yl}(2,6-dimethylpyridin-3-yl)(1-methyl-1H-1,2,3-triazol-5-yl)methanol]	2300	~3700 nM	–	69
Cn1cncc1C(O)(c1ccc(C(F)(F)F)nc1)c1ccc2nc(N3CCCC3)c(Cc3ccc(-n4cccn4)cc3)c(Cl)c2c1 (single isomer, unassigned) [Example 145c, {4-Chloro-3-[4-(1H-pyrazol-1-yl)benzyl]-2-pyrrolidin-1-ylquinolin-6-yl}(1-methyl-1H-imidazol-5-yl)[6-(trifluoromethyl)pyridin-3-yl]methanol]	810	780 nM	–	95
Cn1cncc1C(O)(c1ccc(C(F)(F)F)nc1)c1ccc2nc(N3CCOCC3)c(Cc3ccc(-n4cccn4)cc3)c(Cl)c2c1 (single isomer, unassigned) [Example 146b, {4-Chloro-2-morpholin-4-yl-3-[4-(1H-pyrazol-1-yl)benzyl]quinolin-6-yl}(1-methyl-1H-imidazol-5-yl)[6-(trifluoromethyl)pyridin-3-yl]methanol]	84	210 nM	103	–
Cn1cncc1C(O)(c1ccc(C(F)(F)F)nc1)c1ccc2nc(N3CCOCC3)c(Cc3ccc(-n4cccn4)cc3)c(Cl)c2c1 (single isomer, unassigned) [Example 146c, {4-Chloro-2-morpholin-4-yl-3-[4-(1H-pyrazol-1-yl)benzyl]quinolin-6-yl}(1-methyl-1H-imidazol-5-yl)[6-(trifluoromethyl)pyridin-3-yl]methanol]	600	~2000 nM	–	92
CCN(CC)c1nc2ccc(C(O)(c3ccc(Cl)cc3)c3cncn3C)cc2c(C#N)c1Cc1ccc(-n2cccn2)cc1 (single isomer, unassigned) [Example 154c, 3-(4-(1H-pyrazol-1-yl)benzyl)-6-((4-chlorophenyl)(hydroxy)(1-methyl-1H-imidazol-5-yl)methyl)-2-(diethylamino)quinoline4-carbonitrile]	> 56000	1000 nM	–	–

The next compounds have a lower Kd [1] than those just listed; values first:

Kd [1] [nM]	IC50 [2]	inhibition at 6 µM [2] [%]	RORγt (LBD) Reporter Assay, % inhibition @ 6 µM [2] [%]	SMILES
32	75 nM	–	96	Cn1cncc1C(O)(c1ccc(Cl)cc1)c1ccc2nc(N3CCC3)c(Cc3ccc(-n4cccn4)cc3)c(Cl)c2c1 (single isomer, unassigned) [Example 138c, {2-Azetidin-1-yl-4-chloro-3-[4-(1H-pyrazol-1-yl)benzyl]quinolin-6-yl}(4-chlorophenyl)(1-methyl-1H-imidazol-5-yl)methanol]
0.15	0.66 nM and ~1 nM	–	99	Cc1ccc(C(O)(c2ccc3nc(N4CCC4)c(Cc4ccc(C(F)(F)F)cc4)c(Cl)c3c2)c2cnnn2C)c(C)n1 (single isomer, unassigned) [Example 140c, {2-Azetidin-1-yl-4-chloro-3-[4-(trifluoromethyl)benzyl]quinolin-6-yl}(2,6-dimethylpyridin-3-yl)(1-methyl-1H-1,2,3-triazol-5-yl)methanol]
2.2	~10 nM	–	102	Cc1ccc(C(O)(c2ccc3nc(NC4CC4)c(Cc4ccc(C(F)(F)F)cc4)c(Cl)c3c2)c2cnnn2C)c(C)n1 (single isomer, unassigned) [Example 143c, {4-Chloro-2-(cyclopropylamino)-3-[4-(trifluoromethyl)benzyl]quinolin-6-yl}(2,6-dimethylpyridin-3-yl)(1-methyl-1H-1,2,3-triazol-5-yl)methanol]
2.5	34 nM	–	99	Cc1ccc(C(O)(c2ccc3nc(Cl)c(Cc4ccc(C(F)(F)F)cc4)c(NC4CC4)c3c2)c2cnnn2C)c(C)n1 (single isomer, unassigned) [Example 144c, {2-Chloro-4-(cyclopropylamino)-3-[4-(trifluoromethyl)benzyl]quinolin-6-yl}(2,6-dimethylpyridin-3-yl)(1-methyl-1H-1,2,3-triazol-5-yl)methanol]
80	230 nM	102	–	Cn1cncc1C(O)(c1ccc(C(F)(F)F)nc1)c1ccc2nc(N3CCCC3)c(Cc3ccc(-n4cccn4)cc3)c(Cl)c2c1 (single isomer, unassigned) [Example 145b, {4-Chloro-3-[4-(1H-pyrazol-1-yl)benzyl]-2-pyrrolidin-1-ylquinolin-6-yl}(1-methyl-1H-imidazol-5-yl)[6-(trifluoromethyl)pyridin-3-yl]methanol]
60	210 nM	99	–	Cn1cncc1C(O)(c1ccc(C(F)(F)F)nc1)c1ccc2nc(N3CC(F)C3)c(Cc3ccc(-n4cccn4)cc3)c(Cl)c2c1 (single isomer, unassigned) [Example 147b, {4-Chloro-2-(3-fluoroazetidin-1-yl)-3-[4-(1H-pyrazol-1-yl)benzyl]quinolin-6-yl}(1-methyl-1H-imidazol-5-yl)[6-(trifluoromethyl)pyridin-3-yl]methanol]
5.2	52 nM	–	96	Cn1cncc1C(O)(c1ccc(C(F)(F)F)nc1)c1ccc2nc(N3CC(F)C3)c(Cc3ccc(-n4cccn4)cc3)c(Cl)c2c1 (single isomer, unassigned) [Example 147c, {4-Chloro-2-(3-fluoroazetidin-1-yl)-3-[4-(1H-pyrazol-1-yl)benzyl]quinolin-6-yl}(1-methyl-1H-imidazol-5-yl)[6-(trifluoromethyl)pyridin-3-yl]methanol]
56	460 nM	97	–	Cc1ccc(C(O)(c2ccc3nc(N4CC(F)(F)C4)c(Cc4ccc(C(F)(F)F)cc4)c(Cl)c3c2)c2cnnn2C)c(C)n1 (single isomer, unassigned) [Example 148b, {4-Chloro-2-(3,3-difluoroazetidin-1-yl)-3-[4-(trifluoromethyl)benzyl]quinolin-6-yl}(2,6-dimethylpyridin-3-yl)(1-methyl-1H-1,2,3-triazol-5-yl)methanol]
0.39	~6 nM	–	98	Cc1ccc(C(O)(c2ccc3nc(N4CC(F)(F)C4)c(Cc4ccc(C(F)(F)F)cc4)c(Cl)c3c2)c2cnnn2C)c(C)n1 (single isomer, unassigned) [Example 148c, {4-Chloro-2-(3,3-difluoroazetidin-1-yl)-3-[4-(trifluoromethyl)benzyl]quinolin-6-yl}(2,6-dimethylpyridin-3-yl)(1-methyl-1H-1,2,3-triazol-5-yl)methanol]
1.7	34 nM	102	–	COc1nc2ccc(C(O)(c3ccc(F)cc3)C3CCN(C(C)=O)CC3)cc2c(Cl)c1Cc1ccc(-n2cccn2)cc1 (single isomer, unassigned) [Example 157b, 1-(4-((3-(4-(1H-Pyrazol-1-yl)benzyl)4-chloro-2-methoxyquinolin-6-yl)(4-fluorophenyl)(hydroxy)methyl)piperidin-1-yl)ethanone]
